Assay [1] relates to CT26 GFP+ cells. As to conditions: 384-well plate, row with EDTA added (FIG. 1).
Method: 1. Proliferate CT26 GFP^+ cells to a subconfluent or confluent state, then remove the culture medium by suction, and then wash the cells with phosphate buffered saline (PBS, Invitrogen). 2. Remove PBS, then add a 0.05% trypsin solution [0.25% trypsin, 1 mmol/L EDTA•4Na (Invitrogen), diluted 5-fold with PBS], and allow the reaction under the conditions of 37° C., 5% CO2, and 95% air until cells are separated from the dish. 3. Add 10% FBS-RPMI 1640 to suspend the cells, and collect them. 4. Perform centrifugation (400 g, 3 minutes) at 4° C., and then re-suspend the precipitates (cells) in 10% FBS-RPMI 1640. 5. Mix a part of the cell suspension with 0.4% trypan blue solution (Sigma-Aldrich), and count live cells under a phase contrast microscope by using a cell counting plate (OneCell Counter, OneCell Inc.). 6. In the case of 2D culture, dilute the cell suspension with 10% FBS-0.1% DMSO-RPMI 1640 to 3.0×10^4 cells/mL, and inoculate the cells on a culture plate (ViewPlate-384, PerkinElmer) in a volume of 20 μL/well using BIOMEK (registered trademark) NXP (BECKMAN COULTER). 7. […]
1. Observe morphology of the spheroids by 2 types of methods, in a bright field and with fluorescence, by using IN Cell Analyzer 2000 (GE Healthcare) 72 Hours after the treatment with the drug. […] Evaluate the spheroids on the basis of the total fluorescence amount (density×area) obtained from GFP as an index. […]
Assay [2] deals with CT26 GFP+ cells. In words: Tertiary screening: inhibition of spheroid formation, 2D vs 3D culture on 96 plate, ATP assay. Type of assay: cell-based. As to conditions: 96-well U-shaped bottom plate, pre-treatment or post-treatment. As for the experimental part: Inoculation onto 96 Plate 1. […] 2. […] 3. […] 4. […] 5. […] 6. […] 7. […] 8. […] 1. Serially dilute a compound from the highest concentration of 20 μM at a common ratio of 1/10 for 7 doses (1% DMSO) with the medium. 2. Subsequently, add 10 μL of the serially diluted compound to the cell plate after the inoculation. 3. As for addition time of the drug, add the drug immediately after the inoculation (pre-treatment), or one day after the inoculation (post-treatment). On the final day of the evaluation, add CellTiter-Glo (registered trademark) 3D cell Viability Assay in the same volume as that of the culture volume, and 15 to 30 minutes thereafter, perform pipetting. Subsequently, transfer 120 μL of the cell lysate to Black Plate as required, and measure luminescence with a luminometer (Enspire etc.).

Assay [3] relates to peritoneal dissemination (CT26 GFP+ cells). In words: In vivo test: peritoneal dissemination after intraperitoneal transfer of CT26 GFP+ cells. Also noted: species or system male BALB/c mice. As to conditions: mice, comparison with the vehicle group on the final day (Tukey-Kramer HSD test). The text has this:
1. Use male BALB/c mice (henceforth referred to as mouse or mice, 6 to 8 weeks old at the time of use). 2. Put the mice in a plastic cage (W 136 mm×L 208 mm×H 115 mm) of which bottom is covered with a sterilized floor covering (Paper Clean, Japan SLC, Inc.) in a number of mice not larger than 5 mice per one cage until they are used for the experiments. 3. Allow the mice to ingest solid feed CRF-1 (Oriental Yeast Co., Ltd.) and tap water of water bottle ad libitum during the breeding period. 4. Perform individual identification of the mice by ear punching at the time of arrival of the mice (identification number starts from 01). 1. […] 2. […] 3. […] 4. […] 5. Inject 0.2 mL of the cell suspension into the abdominal cavity of each mouse (2.0×10^6 cells/body) by using a syringe with 26 G hypodermic needle (TERUMO CORP.). […] Spread the extracted alimentary canal on a 100-mm dish, and obtain images of the total alimentary canal in a bright field and with fluorescence by using BZ9000. […] On the last day of the evaluation, sacrifice the mice by cervical dislocation, open up the abdomen by midline incision, and collect the ascites reserved in the abdominal cavity with absorbent cotton of which weight is measured beforehand. […]

Regarding `O=C(O)CN(CCN(CC(=O)O)CC(=O)O)CC(=O)O` [EDTA], the spheroid formation result in the assay on CT26 GFP+ cells [1] is recorded as “no spheroid formation”.
In the case of `O=C(NOC[C@H](O)CO)c1ccc(F)c(F)c1Nc1ccc(I)cc1F` [PD0325901], the “ability to inhibit spheroid formation” value with CT26 GFP+ cells [2] is recorded as “high ability to inhibit spheroid formation”. Besides, the “effect on peritoneal dissemination (fluorescence amount emitted from the alimentary canal extracted on the last evaluation day)” value in assay [3] (FIG. 6) is given as “confirmed in vivo”. Moreover, the “effect on peritoneal dissemination (weight of the ascites collected on the last evaluation day)” value in assay [3] (FIG. 7) is “confirmed in vivo”.

The values are drawn from patent publication US20190055590A1, “REGULARLY ARRANGED SPHEROIDS HAVING EQUAL SIZES AND USE THEREOF” (GAIA BioMedicine Inc., priority 2016, published 2019).
